According to patent publication US8133998B2, “Bicyclic pyrimidine derivatives as calcium channel blockers” (Zalicus Pharmaceuticals, Ltd., priority 2007, dated 2012):

Key:
Test in all cases: T-type calcium channel block, whole cell patch clamp in HEK cells
Assay type in all cases: cell-based
[1] = target: T1, human α1G T-type channels (Homo sapiens, UniProt O43497); conditions: HEK cells stably expressing human α1G; measured at 1 μM drug; mainly non-inactivated protocol
T1 construct: expressed in transfected cells; host or cells: HEK 293
Experimental: (§1) T-type calcium channel blocking activity was assayed in human embryonic kidney cells, HEK 293, stably transfected with the T-type calcium channel subunits. Briefly, cells were cultured in Dulbecco's modified eagle medium (DMEM) supplemented with 10% fetal bovine serum, 200 U/ml penicillin and 0.2 mg/ml streptomycin at 37° C. with 5% CO2. At 85% confluency cells were split with 0.25% trypsin/1 mM EDTA and plated at 10% confluency on glass coverslips. At 12 hours the medium was replaced and the cells stably transfected using a standard calcium phosphate protocol and the appropriate calcium channel cDNA's. Fresh DMEM was supplied and the cells transferred to 28° C./5% CO2. Cells were incubated for 1 to 2 days prior to whole cell recording.
(§2) Standard patch-clamp techniques were employed to identify blockers of T-type currents. Briefly, previously described HEK cell lines stably expressing human α1G, α1H and α1I T-type channels were used for all the recordings (passage #: 4-20, 37° C., 5% CO2). Whole cell patch clamp experiments were performed using an Axopatch 200B amplifier (Axon Instruments, Burlingame, Calif.) linked to a personal computer equipped with pCLAMP software. Data were analyzed using Clampfit (Axon Instruments) and SigmaPlot 4.0 (Jandel Scientific). To obtain T-type currents, plastic dishes containing semi-confluent cells were positioned on the stage of a ZEISS AXIOVERT S100 microscope after replacing the culture medium with external solution (see below). Whole-cell patches were obtained using pipettes (borosilicate glass with filament, O.D.: 1.5 mm, I.D.: 0.86 mm, 10 cm length), fabricated on a SUTTER P-97 puller with resistance values of ˜5 MΩ (see below for internal solution).
(§3) In the non-inactivating protocol, the holding potential is set at −110 mV and with a pre-pulse at −100 mV for 1 second prior to the test pulse at −40 mV for 50 ms. In the inactivation protocol, the pre-pulse is at approximately −85 mV for 1 second, which inactivates about 15% of the T-type channels.
(§4) Test compounds were dissolved in external solution, 0.1-0.01% DMSO. After ˜10 min rest, they were applied by gravity close to the cell using a WPI microfil tubing. The “non-inactivated” pre-pulse was used to examine the resting block of a compound. The “inactivated” protocol was employed to study voltage-dependent block. However, the initial data shown below were mainly obtained using the non-inactivated protocol only. Kd values are shown for various compounds of the invention in Table 4 measured at 1 μM for the drug of interest except for compound 18 which was measured at 200 nM.

[2] = target: T2, human α1H T-type channels (Homo sapiens, UniProt O95180); conditions: HEK cells stably expressing human α1H; measured at 1 μM drug; mainly non-inactivated protocol
T2 construct: expressed in transfected cells; host or cells: HEK 293
Experimental: as §1, §2, §3, §4

[3] = target: T3, human α1I T-type channels (Homo sapiens, UniProt Q9P0X4); conditions: HEK cells stably expressing human α1I; measured at 1 μM drug; mainly non-inactivated protocol
T3 construct: expressed in transfected cells; host or cells: HEK 293
Experimental: as §1, §2, §3, §4

T1 sequence (O43497 whole entry): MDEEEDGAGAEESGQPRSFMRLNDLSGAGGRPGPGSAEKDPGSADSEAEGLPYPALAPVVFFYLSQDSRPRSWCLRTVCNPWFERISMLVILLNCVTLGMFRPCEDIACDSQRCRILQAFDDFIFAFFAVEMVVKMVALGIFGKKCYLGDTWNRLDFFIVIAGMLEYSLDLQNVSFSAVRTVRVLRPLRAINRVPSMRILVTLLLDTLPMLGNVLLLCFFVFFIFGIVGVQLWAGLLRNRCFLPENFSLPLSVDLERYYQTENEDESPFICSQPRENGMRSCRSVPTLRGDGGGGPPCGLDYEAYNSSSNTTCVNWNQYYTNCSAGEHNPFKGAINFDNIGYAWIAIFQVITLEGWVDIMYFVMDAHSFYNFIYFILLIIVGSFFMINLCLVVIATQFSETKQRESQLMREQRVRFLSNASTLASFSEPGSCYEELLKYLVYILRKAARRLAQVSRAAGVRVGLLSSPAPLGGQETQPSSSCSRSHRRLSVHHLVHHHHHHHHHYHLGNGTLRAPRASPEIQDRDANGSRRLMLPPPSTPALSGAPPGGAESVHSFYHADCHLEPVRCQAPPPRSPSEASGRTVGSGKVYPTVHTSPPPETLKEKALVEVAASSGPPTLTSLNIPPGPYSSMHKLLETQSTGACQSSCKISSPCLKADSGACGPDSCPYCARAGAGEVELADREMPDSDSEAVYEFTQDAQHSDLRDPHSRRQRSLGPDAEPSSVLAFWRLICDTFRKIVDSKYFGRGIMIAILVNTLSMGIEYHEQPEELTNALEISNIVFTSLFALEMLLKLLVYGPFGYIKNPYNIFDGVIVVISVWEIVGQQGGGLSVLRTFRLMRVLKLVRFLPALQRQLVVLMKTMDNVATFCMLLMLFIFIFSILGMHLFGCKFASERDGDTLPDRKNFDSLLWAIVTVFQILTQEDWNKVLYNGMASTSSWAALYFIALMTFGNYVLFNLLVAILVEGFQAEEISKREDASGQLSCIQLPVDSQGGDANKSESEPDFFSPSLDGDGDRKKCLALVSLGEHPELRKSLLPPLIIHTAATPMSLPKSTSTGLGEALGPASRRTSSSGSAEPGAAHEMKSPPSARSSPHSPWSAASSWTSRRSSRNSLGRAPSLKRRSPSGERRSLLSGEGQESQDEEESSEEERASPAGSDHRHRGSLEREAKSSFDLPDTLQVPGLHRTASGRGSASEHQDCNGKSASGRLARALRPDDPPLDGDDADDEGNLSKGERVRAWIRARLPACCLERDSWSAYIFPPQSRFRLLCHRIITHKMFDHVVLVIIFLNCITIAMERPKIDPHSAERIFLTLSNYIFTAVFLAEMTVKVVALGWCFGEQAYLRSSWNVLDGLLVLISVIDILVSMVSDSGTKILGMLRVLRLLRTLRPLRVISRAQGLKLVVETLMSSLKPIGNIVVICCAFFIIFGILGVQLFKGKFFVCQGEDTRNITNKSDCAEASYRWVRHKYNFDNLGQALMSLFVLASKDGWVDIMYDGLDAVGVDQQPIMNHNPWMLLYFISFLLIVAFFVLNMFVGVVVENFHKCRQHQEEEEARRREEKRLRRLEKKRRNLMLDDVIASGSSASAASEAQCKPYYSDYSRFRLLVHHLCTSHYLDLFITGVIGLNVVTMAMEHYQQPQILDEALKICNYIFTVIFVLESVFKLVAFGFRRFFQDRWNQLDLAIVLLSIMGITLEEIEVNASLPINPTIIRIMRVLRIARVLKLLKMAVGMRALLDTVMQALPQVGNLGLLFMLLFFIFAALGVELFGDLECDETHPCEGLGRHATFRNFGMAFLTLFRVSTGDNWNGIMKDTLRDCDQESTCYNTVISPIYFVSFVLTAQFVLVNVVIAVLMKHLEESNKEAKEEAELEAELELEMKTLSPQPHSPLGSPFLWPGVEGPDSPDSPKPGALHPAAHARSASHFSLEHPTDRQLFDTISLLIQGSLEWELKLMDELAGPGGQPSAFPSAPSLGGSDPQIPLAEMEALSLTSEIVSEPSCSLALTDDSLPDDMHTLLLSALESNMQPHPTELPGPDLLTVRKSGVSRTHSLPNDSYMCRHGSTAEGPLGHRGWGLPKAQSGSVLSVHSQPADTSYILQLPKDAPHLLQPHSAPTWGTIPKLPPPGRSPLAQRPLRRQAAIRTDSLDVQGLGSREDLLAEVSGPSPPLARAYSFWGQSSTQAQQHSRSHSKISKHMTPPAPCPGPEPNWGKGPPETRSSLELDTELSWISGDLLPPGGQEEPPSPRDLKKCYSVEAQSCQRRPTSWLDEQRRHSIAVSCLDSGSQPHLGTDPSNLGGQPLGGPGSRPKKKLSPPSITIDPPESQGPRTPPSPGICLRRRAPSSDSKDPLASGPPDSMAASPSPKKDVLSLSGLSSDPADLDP
T3 sequence (Q9P0X4 whole entry): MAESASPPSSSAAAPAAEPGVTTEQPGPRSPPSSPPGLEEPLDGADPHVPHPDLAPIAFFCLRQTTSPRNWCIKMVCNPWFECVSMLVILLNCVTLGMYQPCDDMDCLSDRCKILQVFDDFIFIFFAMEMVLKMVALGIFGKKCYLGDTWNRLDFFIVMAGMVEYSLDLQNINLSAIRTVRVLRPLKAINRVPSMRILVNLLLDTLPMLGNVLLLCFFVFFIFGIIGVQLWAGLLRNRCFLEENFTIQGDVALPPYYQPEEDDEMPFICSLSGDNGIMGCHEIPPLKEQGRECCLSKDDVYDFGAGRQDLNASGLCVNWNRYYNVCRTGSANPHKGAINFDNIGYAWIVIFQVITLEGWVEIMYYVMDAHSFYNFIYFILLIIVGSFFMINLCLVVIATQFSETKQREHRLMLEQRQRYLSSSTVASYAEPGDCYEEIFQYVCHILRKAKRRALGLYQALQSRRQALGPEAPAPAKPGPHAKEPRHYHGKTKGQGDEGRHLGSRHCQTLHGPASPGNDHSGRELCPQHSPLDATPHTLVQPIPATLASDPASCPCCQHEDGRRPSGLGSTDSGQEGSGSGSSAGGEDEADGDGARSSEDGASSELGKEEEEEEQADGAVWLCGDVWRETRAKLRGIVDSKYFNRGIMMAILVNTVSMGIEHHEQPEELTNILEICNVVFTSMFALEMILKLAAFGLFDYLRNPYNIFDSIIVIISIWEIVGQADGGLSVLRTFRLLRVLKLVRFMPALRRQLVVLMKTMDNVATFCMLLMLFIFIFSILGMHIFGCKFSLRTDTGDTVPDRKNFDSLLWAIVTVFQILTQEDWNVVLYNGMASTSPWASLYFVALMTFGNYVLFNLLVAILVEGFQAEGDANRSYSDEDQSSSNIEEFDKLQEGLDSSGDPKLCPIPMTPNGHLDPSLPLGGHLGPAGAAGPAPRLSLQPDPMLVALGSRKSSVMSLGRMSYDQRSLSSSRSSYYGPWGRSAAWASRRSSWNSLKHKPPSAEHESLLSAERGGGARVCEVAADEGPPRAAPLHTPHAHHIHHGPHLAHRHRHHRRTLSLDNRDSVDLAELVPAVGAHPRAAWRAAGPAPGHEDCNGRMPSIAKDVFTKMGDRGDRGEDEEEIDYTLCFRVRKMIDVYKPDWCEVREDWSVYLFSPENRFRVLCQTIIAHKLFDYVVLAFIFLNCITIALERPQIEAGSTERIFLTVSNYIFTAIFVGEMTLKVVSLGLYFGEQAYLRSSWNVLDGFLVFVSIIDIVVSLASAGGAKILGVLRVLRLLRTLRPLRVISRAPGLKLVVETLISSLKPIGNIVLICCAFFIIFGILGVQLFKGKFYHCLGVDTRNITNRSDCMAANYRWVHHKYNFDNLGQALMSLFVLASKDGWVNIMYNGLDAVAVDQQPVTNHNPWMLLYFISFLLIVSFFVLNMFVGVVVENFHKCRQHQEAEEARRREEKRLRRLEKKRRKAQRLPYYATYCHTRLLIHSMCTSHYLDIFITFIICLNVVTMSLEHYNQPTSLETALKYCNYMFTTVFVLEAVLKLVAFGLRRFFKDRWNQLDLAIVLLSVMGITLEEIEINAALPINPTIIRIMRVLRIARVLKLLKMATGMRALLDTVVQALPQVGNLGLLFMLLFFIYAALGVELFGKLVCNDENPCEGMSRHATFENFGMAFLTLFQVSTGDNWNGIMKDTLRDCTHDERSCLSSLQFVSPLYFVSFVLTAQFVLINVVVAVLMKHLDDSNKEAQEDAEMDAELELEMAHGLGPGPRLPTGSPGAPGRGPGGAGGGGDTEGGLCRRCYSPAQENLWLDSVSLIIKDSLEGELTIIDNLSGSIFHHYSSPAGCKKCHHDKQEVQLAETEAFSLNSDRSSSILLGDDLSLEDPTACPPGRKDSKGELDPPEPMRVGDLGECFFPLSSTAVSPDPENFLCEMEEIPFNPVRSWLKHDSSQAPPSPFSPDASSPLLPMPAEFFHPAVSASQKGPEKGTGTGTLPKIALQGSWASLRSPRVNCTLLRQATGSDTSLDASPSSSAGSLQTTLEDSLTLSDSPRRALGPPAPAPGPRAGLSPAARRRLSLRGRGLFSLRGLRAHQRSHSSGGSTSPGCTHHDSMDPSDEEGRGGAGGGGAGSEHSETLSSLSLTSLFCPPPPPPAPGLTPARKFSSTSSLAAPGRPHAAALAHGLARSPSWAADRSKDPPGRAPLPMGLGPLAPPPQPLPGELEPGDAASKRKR

SMILES	Kd [1] [nM]	Kd [2] [nM]	Kd [3] [nM]
Cc1c(C(=O)N2CCN(c3cccc(C(F)(F)F)c3)CC2)sc2ncn(CC(=O)NC(C)(C)C)c(=O)c12 [Compound 12, N-tert-butyl-2-(5-methyl-4-oxo-6-(4-(3-(trifluoromethyl)phenyl)piperazine-1-carbonyl)thieno[2,3-d]pyrimidin-3(4H)-yl)acetamide]	1960	1060	
Cc1c(C(=O)N2CCN(c3cccc(Cl)c3)CC2)sc2ncn(CC(=O)NC3CCCCC3)c(=O)c12 [Compound 24, 2-(6-(4-(3-chlorophenyl)piperazine-1-carbonyl)-5-methyl-4-oxothieno[2,3-d]pyrimidin-3(4H)-yl)-N-cyclohexylacetamide]	300	90	1520
Cc1c(C(=O)N2CCN(c3ccccc3F)CC2)sc2ncn(CC(=O)NC3CCCC3)c(=O)c12 [Compound 36, N-cyclopentyl-2-(6-(4-(2-fluorophenyl)piperazine-1-carbonyl)-5-methyl-4-oxothieno[2,3-d]pyrimidin-3(4H)-yl)acetamide]	1720	750	
Cc1c(C(=O)N2CCN(c3ccccc3F)CC2)sc2ncn(CC(=O)N3CCCCC3)c(=O)c12 [Compound 81, 6-(4-(2-fluorophenyl)piperazine-1-carbonyl)-5-methyl-3-(2-oxo-2-(piperidin-1-yl)ethyl)thieno[2,3-d]pyrimidin-4(3H)-one]	1680	720	
CCN(CC(F)(F)F)C(=O)Cn1cnc2sc(C(=O)N3CCN(c4cccc(Cl)c4)CC3)c(C)c2c1=O [Compound 127, 2-(6-(4-(3-chlorophenyl)piperazine-1-carbonyl)-5-methyl-4-oxothieno[2,3-d]pyrimidin-3(4H)-yl)-N-ethyl-N-(2,2,2-trifluoroethyl)acetamide]	1150	630	
CCN(CC(F)(F)F)C(=O)Cn1cnc2sc(C(=O)N3CCN(c4ccc(C(F)(F)F)cc4)CC3)c(C)c2c1=O [Compound 130, N-ethyl-2-(5-methyl-4-oxo-6-(4-(4-(trifluromethyl)phenyl)piperazine-1-carbonyl)thieno[2,3-d]pyrimidin-3(4H)-yl)-N-(2,2,2-trifluoroethyl)acetamide]	3470	390	
Cc1c(C(=O)N2CCN(c3ccc(F)c(Cl)c3)CC2)sc2ncn(CC(=O)N3CCCC3)c(=O)c12 [Compound 134, 6-(4-(3-chloro-4-fluoro-phenyl)piperazine-1-carbonyl)-5-methyl-3-(2-oxo-2-(pyrrolidin-1-yl)ethyl)thieno[2,3-d]pyri-midin-4(3H)-one]	510	18200	
Cc1c(C(=O)N2CCN(c3ccc(F)c(Cl)c3)CC2)sc2ncn(CC(=O)N3CC[C@H](F)C3)c(=O)c12 [Compound 137, (S)-6-(4-(3-chloro-4-fluoro-phenyl)piperazine-1-carbonyl)-3-(2-(3-fluoro-pyrrolidin-1-yl)-2-oxoethyl)-5-methyl-thieno[2,3-d]pyrimidin-4(3H)-one]	1800	> 8440	
Cc1c(C(=O)N2CCN(c3ccccc3F)CC2)sc2ncn(CC(=O)Nc3ccc(C(F)(F)F)cc3)c(=O)c12 [Compound 142, 2-(6-(4-(2-fluorophenyl)piperazine-1-carbonyl)-5-methyl-4-oxothieno[2,3-d]pyrimidin-3(4H)-yl)-N-(4-(trifluoromethyl)phenyl)acetamide]	1160	700	

More lines, in order of falling Kd [1], values ahead:

Kd [1] [nM]	Kd [2] [nM]	Kd [3] [nM]	SMILES
3600	360	2380	Cc1c(C(=O)N2CCN(c3ccccc3)CC2)sc2ncn(CC(=O)NC3CCCCC3)c(=O)c12 [Compound 19, N-cyclohexyl-2-(5-methyl-4-oxo-6-(4-phenylpiperazine-1-carbonyl)thieno[2,3-d]pyrimidin-3(4H)-yl)acetamide]
2370	870		Cc1c(C(=O)N2CCN(c3ccc(Cl)cc3)CC2)sc2ncn(CC(=O)NC(C)(C)C)c(=O)c12 [Compound 15, N-tert-butyl-2-(6-(4-(4-chlorophenyl)piperazine-1-carbonyl)-5-methyl-4-oxothieno[2,3-d]pyrimidin-3(4H)-yl)acetamide]
1370	630		Cc1c(C(=O)N2CCN(c3cccc(Cl)c3)CC2)sc2ncn(CC(=O)NC(C)(C)C)c(=O)c12 [Compound 16, N-tert-butyl-2-(6-(4-(3-chlorophenyl)piperazine-1-carbonyl)-5-methyl-4-oxothieno[2,3-d]pyrimidin-3(4H)-yl)acetamide]
1360	430		Cc1c(C(=O)N2CCN(c3ccc(F)cc3)CC2)sc2ncn(CC(=O)NC3CCCCC3)c(=O)c12 [Compound 22, N-cyclohexyl-2-(6-(4-(4-fluorophenyl)piperazine-1-carbonyl)-5-methyl-4-oxothieno[2,3-d]pyrimidin-3(4H)-yl)acetamide]
1260	280	3270	Cc1c(C(=O)N2CCN(c3ccccc3F)CC2)sc2ncn(CC(=O)NC3CCCCC3)c(=O)c12 [Compound 23, N-cyclohexyl-2-(6-(4-(2-fluorophenyl)piperazine-1-carbonyl)-5-methyl-4-oxothieno[2,3-d]pyrimidin-3(4H)-yl)acetamide]
1220	300	> 31300	CCN(CC)C(=O)Cn1cnc2sc(C(=O)N3CCN(c4ccc(C(F)(F)F)cc4)CC3)c(C)c2c1=O [Compound 10, N,N-diethyl-2-(5-methyl-4-oxo-6-(4-(4-(trifluoromethyl)phenyl)piperazine-1-carbonyl)thieno[2,3-d]pyrimidin-3(4H)-yl)acetamide]
950	340	9670	CCN(CC)C(=O)Cn1cnc2sc(C(=O)N3CCN(c4ccc(Cl)c(Cl)c4)CC3)c(C)c2c1=O [Compound 6, 2-(6-(4-(3,4-dichlorophenyl)piperazine-1-carbonyl)-5-methyl-4-oxothieno[2,3-d]pyrimidin-3(4H)-yl)-N,N-diethylacetamide]
630	420		Cc1c(C(=O)N2CCN(c3ccccc3F)CC2)sc2ncn(CC(=O)N3CCC(C(F)(F)F)CC3)c(=O)c12 [Compound 89, 6-(4-(2-fluorophenyl)piperazine-1-carbonyl)-5-methyl-3-(2-oxo-2-((4-trifluoromethyl)piperidin-1-yl)ethyl) thieno[2,3-d]pyrimidin-4(3H)-one]
620	400		Cc1c(C(=O)N2CCN(c3cccc(Cl)c3)CC2)sc2ncn(CC(=O)N3CCC(F)(F)C3)c(=O)c12 [Compound 78, 6-(4-(3-chlorophenyl)-piperazine-1-carbonyl)-3-(2-(3,3-difluoropyrrolidin-1-yl)-2-oxoethyl)-5-methylthieno[2,3-d]pyrimidin-4(3H)-one]
610	190	5200	Cc1c(C(=O)N2CCN(c3cccc(F)c3)CC2)sc2ncn(CC(=O)NC3CCCCC3)c(=O)c12 [Compound 21, N-cyclohexyl-2-(6-(4-(3-fluorophenyl)piperazine-1-carbonyl)-5-methyl-4-oxothieno[2,3-d]pyrimidin-3(4H)-yl)acetamide]
510	500		Cc1c(C(=O)N2CCN(c3cc(C(F)(F)F)cc(C(F)(F)F)c3)CC2)sc2ncn(CC(=O)NC(C)(C)C)c(=O)c12 [Compound 17, 2-(6-(4-(3,5-bis(trifluoromethyl)phenyl)piperazine-1-carbonyl)-5-methyl-4-oxothieno[2,3-d]pyrimidin-3(4H)-yl)-N-tert-butylacetamide]
450	540		CCN(CC)C(=O)Cn1cnc2sc(C(=O)N3CCN(c4ccc(Cl)c(C(F)(F)F)c4)CC3)c(C)c2c1=O [Compound 8, 2-(6-(4-(4-chloro-3-(trifluoromethyl)phenyl)piperazine-1-carbonyl)-5-methyl-4-oxothieno[2,3-d]pyrimidin-3(4H)-yl)-N,N-diethylacetamide]
330	180	2100	Cc1c(C(=O)N2CCN(c3ccc(Cl)cc3)CC2)sc2ncn(CC(=O)NC3CCCCC3)c(=O)c12 [Compound 20, 2-(6-(4-(4-chlorophenyl)piperazine-1-carbonyl)-5-methyl-4-oxothieno[2,3-d]pyrimidin-3(4H)-yl)-N-cyclohexylacetamide]
